Assay results published in patent US20200270309A1, “MALEIMIDE GROUP-MODIFIED ANGIOGENESIS INHIBITOR HM-1 AND USE THEREOF” (NANJING ANJI BIOLOGICAL TECHNOLOGY CO., LTD, priority 2017, published 2020).
Read-outs that look alike come from different tables or passages of the source. Peptide text beside a SMILES is read from it. * marks the point of attachment. Hexanoyl(6-maleimido) = O=C1C=CC(=O)N1CCCCCC(=O)*; Propanoyl(3-maleimido) = O=C1C=CC(=O)N1CCC(=O)*; X4 = O=C1C=CC(=O)N1CCOCCOCCOCCOCCCCCCCC(=O)*; X24 = O=C1C=CC(=O)N1CCOCCOCCOCCOCCOCCC(=O)*; X34 = O=C1C=CC(=O)N1CCOCCOCCOCCCCCC(=O)*; X70 = O=C1C=CC(=O)N1CCOCCOCCOCCCC(=O)*; X31 = O=C1C=CC(=O)N1CCOCCOCCOCC(=O)*; X13 = O=C1C=CC(=O)N1CCOCCCCCC(=O)*; X30 = O=C1C=CC(=O)N1CCOCCOCC(=O)*

Experiment: Half-lives and pharmacokinetic parameters of polypeptides vs HM-1
Parameters: AUC0-∞: concentration or dose not given beside the values
Settings: in vivo
[1] = read-out: T1/2β (half-life) (converted)

| AUC(0-inf) [ng·h/mL] | MRT inf [h] | clearance [mL/min/kg] | half-life (T1/2β (half-life)) [min] | AUC0-∞ [mg/L/h] | half-life [1] [min] | AUC(0-inf) (read-out: AUC0-∞) [ng·h/mL] | clearance (read-out: CL (converted)) [mL/min/kg] | MRT inf (read-out: MRT0-∞) [h] | SMILES |
| --- | --- | --- | --- | --- | --- | --- | --- | --- | --- |
| 32300 ± 7650 | 57.7 ± 13.3 | 0.517 | 2398 ± 18.6 |  |  |  |  |  | C[C@H](NC(=O)CNC(=O)[C@H](CCCNC(=N)N)NC(=O)COCCOCCOCCN1C(=O)C=CC1=O)C(=O)N[C@@H](CC(=O)O)C(=O)N[C@@H](CCCNC(=N)N)C(=O)N[C@@H](C)C(=O)NCC(=O)NCC(=O)NCC(=O)NCC(=O)N[C@@H](CCCNC(=N)N)C(=O)NCC(=O)N[C@@H](CC(=O)O)C(=O)O [X63] (X31-RGADRAGGGGRGD-OH) |
| 33900 ± 7640 | 60.6 ± 10.5 | 0.492 | 2521 ± 19.8 |  |  |  |  |  | C[C@H](NC(=O)CNC(=O)[C@H](CCCNC(=N)N)NC(=O)CCCCCCCOCCOCCOCCOCCN1C(=O)C=CC1=O)C(=O)N[C@@H](CC(=O)O)C(=O)N[C@@H](CCCNC(=N)N)C(=O)N[C@@H](C)C(=O)NCC(=O)NCC(=O)NCC(=O)NCC(=O)N[C@@H](CCCNC(=N)N)C(=O)NCC(=O)N[C@@H](CC(=O)O)C(=O)O [X76] (X4-RGADRAGGGGRGD-OH) |
| 31600 ± 8030 | 56.4 ± 11.6 | 0.528 | 2345 ± 16.8 |  |  |  |  |  | C[C@H](NC(=O)CNC(=O)[C@H](CCCNC(=N)N)NC(=O)CCCCCOCCOCCOCCN1C(=O)C=CC1=O)C(=O)N[C@@H](CC(=O)O)C(=O)N[C@@H](CCCNC(=N)N)C(=O)N[C@@H](C)C(=O)NCC(=O)NCC(=O)NCC(=O)NCC(=O)N[C@@H](CCCNC(=N)N)C(=O)NCC(=O)N[C@@H](CC(=O)O)C(=O)O [X67] (X34-RGADRAGGGGRGD-OH) |
| 32900 ± 8070 | 59 ± 10.1 | 0.507 | 2452 ± 17.4 |  |  |  |  |  | C[C@H](NC(=O)CNC(=O)[C@H](CCCNC(=N)N)NC(=O)COCCOCCN1C(=O)C=CC1=O)C(=O)N[C@@H](CC(=O)O)C(=O)N[C@@H](CCCNC(=N)N)C(=O)N[C@@H](C)C(=O)NCC(=O)NCC(=O)NCC(=O)NCC(=O)N[C@@H](CCCNC(=N)N)C(=O)NCC(=O)N[C@@H](CC(=O)O)C(=O)O [X56] (X30-RGADRAGGGGRGD-OH) |
|  |  |  |  | 0.0350 ± 0.0076 | 2129 ± 18 |  |  |  | CSCC[C@H](NC(=O)[C@H](Cc1c[nH]cn1)NC(=O)[C@H](CCC(N)=O)NC(=O)[C@H](CCCNC(=N)N)NC(=O)CCCCCN1C(=O)C=CC1=O)C(=O)N[C@@H](Cc1ccccc1)C(=O)N[C@@H](CO)C(=O)N[C@@H](Cc1c[nH]c2ccccc12)C(=O)N[C@H](C(=O)N[C@@H](CC(C)C)C(=O)N[C@@H](C)C(=O)N[C@@H](CCCNC(=N)N)C(=O)N[C@@H](CC(N)=O)C(=O)N[C@@H](CC(=O)O)C(=O)N[C@@H](CCC(N)=O)C(=O)N[C@@H](CCC(=O)O)C(=O)N[C@@H](CCC(=O)O)C(=O)N[C@@H](CCCNC(=N)N)C(=O)NCC(=O)N[C@@H](CC(=O)O)C(=O)O)C(C)C [P2] ({Hexanoyl(6-maleimido)}-RQHMFSWVLARNDQEERGD-OH; C-terminus assumed) |
| 29800 ± 8510 | 53.4 ± 9.94 | 0.558 | 2221 ± 18.6 |  |  |  |  |  | C[C@H](NC(=O)CNC(=O)[C@H](CCCNC(=N)N)NC(=O)CCOCCOCCOCCOCCOCCN1C(=O)C=CC1=O)C(=O)N[C@@H](CC(=O)O)C(=O)N[C@@H](CCCNC(=N)N)C(=O)N[C@@H](C)C(=O)NCC(=O)NCC(=O)NCC(=O)NCC(=O)N[C@@H](CCCNC(=N)N)C(=O)NCC(=O)N[C@@H](CC(=O)O)C(=O)O [X78] (X24-RGADRAGGGGRGD-OH) |
|  |  |  |  |  | 2350 ± 18.6 | 31600 ± 8230 | 0.528 | 56.5 ± 11.6 | C[C@H](NC(=O)CNC(=O)[C@H](CCCNC(=N)N)NC(=O)CCN1C(=O)C=CC1=O)C(=O)N[C@@H](CC(=O)O)C(=O)N[C@@H](CCCNC(=N)N)C(=O)N[C@@H](C)C(=O)N[C@@H](CCC(=O)O)C(=O)N[C@@H](C)C(=O)N[C@@H](C)C(=O)N[C@@H](C)C(=O)N[C@@H](CCCCN)C(=O)N[C@@H](CCCNC(=N)N)C(=O)NCC(=O)N[C@@H](CC(=O)O)C(=O)O [P11] ({Propanoyl(3-maleimido)}-RGADRAEAAAKRGD-OH) |
| 31800 ± 7280 | 57.1 ± 12.2 | 0.523 | 2372 ± 18.6 |  |  |  |  |  | C[C@H](NC(=O)CNC(=O)[C@H](CCCNC(=N)N)NC(=O)CCCOCCOCCOCCN1C(=O)C=CC1=O)C(=O)N[C@@H](CC(=O)O)C(=O)N[C@@H](CCCNC(=N)N)C(=O)N[C@@H](C)C(=O)NCC(=O)NCC(=O)NCC(=O)NCC(=O)N[C@@H](CCCNC(=N)N)C(=O)NCC(=O)N[C@@H](CC(=O)O)C(=O)O [X65] (X70-RGADRAGGGGRGD-OH) |
| 31100 ± 7940 | 55.5 ± 12.4 | 0.537 | 2308 ± 14.4 |  |  |  |  |  | C[C@H](NC(=O)CNC(=O)[C@H](CCCNC(=N)N)NC(=O)CCCCCOCCN1C(=O)C=CC1=O)C(=O)N[C@@H](CC(=O)O)C(=O)N[C@@H](CCCNC(=N)N)C(=O)N[C@@H](C)C(=O)NCC(=O)NCC(=O)NCC(=O)NCC(=O)N[C@@H](CCCNC(=N)N)C(=O)NCC(=O)N[C@@H](CC(=O)O)C(=O)O [X53] (X13-RGADRAGGGGRGD-OH) |
|  |  |  |  |  | 2075 ± 17.4 | 27900 ± 7030 | 0.598 | 49.9 ± 13.2 | C[C@H](NC(=O)CNC(=O)[C@H](CCCNC(=N)N)NC(=O)CCCCCN1C(=O)C=CC1=O)C(=O)N[C@@H](CC(=O)O)C(=O)N[C@@H](CCCNC(=N)N)C(=O)N[C@@H](C)C(=O)NCC(=O)NCC(=O)NCC(=O)NCC(=O)N[C@@H](CCCNC(=N)N)C(=O)NCC(=O)N[C@@H](CC(=O)O)C(=O)O [X5] ({Hexanoyl(6-maleimido)}-RGADRAGGGGRGD-OH) |
